Tests used:
[1] = system: AGSST (creeping bentgrass); experiment: Pre-plant incorporated (PPI) herbicidal activity, cool season; assay type: in vivo, Agrostis stolonifera; conditions: for PPI activity GR80, AGSST: pre-plant incorporated, lowest tested rate with 80% or greater inhibition, about 14 days; for Percent inhibition AGSST: weed, PPI application
Procedure, shortened: (§1)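 Percent inhibition relative to untreated plants, scored about 14 days after planting. Compound was sprayed in organic solvent onto cover soil, mixed through, and layered over seeds on compacted topsoil. Warm-season species grown at 30/21° C, cool-season at 18/13° C day/night.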

POLCO (wild buckwheat) = experiment: as above; assay type: in vivo, Polygonum convolvulus; conditions: for PPI activity GR80, POLCO: pre-plant incorporated, lowest tested rate with 80% or greater inhibition, about 14 days; for Percent inhibition POLCO: weed, PPI application
Procedure, shortened: as §1

LOLMG (annual ryegrass) = experiment: as above; assay type: in vivo, Lolium multiflorum; conditions: for PPI activity GR80, LOLMG: pre-plant incorporated, lowest tested rate with 80% or greater inhibition, about 14 days; for Percent inhibition LOLMG: weed, PPI application
Procedure, shortened: as §1

[2] = system: GALAP (catchweed bedstraw); experiment: as above; assay type: in vivo, Galium aparine; conditions: for PPI activity GR80, GALAP: pre-plant incorporated, lowest tested rate with 80% or greater inhibition, about 14 days; for Percent inhibition GALAP: weed, PPI application
Procedure, shortened: as §1

corn (ZEAMX) = experiment: Selectivity test, PPI, warm season crop; assay type: in vivo, Zea mays; conditions: PPI application
Procedure, shortened: (§2)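 Percent inhibition relative to untreated controls, assessed roughly 14 days post-planting. Seeds were covered with a soil layer into which solvent-borne compound had been sprayed and mixed. Plants were then grown at 30/21° C. (warm season) or 18/13° C. (cool season) day/night regimes.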

barley (HORVX) = experiment: Selectivity test, PPI, cool season crop; assay type: in vivo, Hordeunm vulgare; conditions: PPI application
Procedure, shortened: as §2

SETVI (green foxtail) = experiment: Post-emergence herbicidal activity, cool season; assay type: in vivo, Setaria viridis; conditions: abraded plants sprayed at 300, 100, 30 and 10 g/ha; about 14 days after treatment
Procedure, shortened: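 Seeds sown in topsoil, covered with 50% topsoil/50% Rediearth™, subirrigated. At 9 to 14 days, foliage abraded, then sprayed at 300, 100, 30 or 10 g/ha in acetone/water 50:50. Plants held at 18/13° C. day/night, rated for % inhibition at ~14 days, GR80 assigned.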

STEME (common chickweed) = experiment: Pre-plant incorporated (PPI) herbicidal activity, cool season; assay type: in vivo, Stellaria media; conditions: for PPI activity GR80, STEME: pre-plant incorporated, lowest tested rate with 80% or greater inhibition, about 14 days; for Percent inhibition STEME: weed, PPI application
Procedure, shortened: as §1

rice (ORYSA) = experiment: Selectivity test, PPI, warm season crop; assay type: in vivo, Oryza sativa; conditions: PPI application
Procedure, shortened: as §2

[3] = system: BRAPP (broadleaf signalgrass); experiment: Pre-plant incorporated (PPI) herbicidal activity, warm season; assay type: in vivo, Brachiaria platyphylla; conditions: for Percent inhibition BRAPP: PPI application; for PPI activity GR80, BRAPP: pre-plant incorporated, lowest tested rate with 80% or greater inhibition, about 14 days
Procedure, shortened: as §1

SMILES: C=C(CC(F)(F)S(=O)(=O)c1ncn(C(=O)N(CC)CC)n1)C[Si](C)(C)C [Example 20]
- PPI activity GR80, AGSST [1]: 30 g/ha
- Percent inhibition AGSST ([1]; 10 g/ha): 0%
- Percent inhibition AGSST ([1]; 30 g/ha): 10%
- Percent inhibition AGSST ([1]; 100 g/ha): 85%
- Percent inhibition AGSST ([1]; 300 g/ha): 75%
- Percent inhibition AGSST ([1]; 900 g/ha): 100%
- PPI activity GR80, POLCO (POLCO (wild buckwheat)): * (activity observed, at least at highest rate, but <80% inhibition)
- PPI activity GR80, LOLMG (LOLMG (annual ryegrass)): * (activity observed, at least at highest rate, but <80% inhibition)
- Percent inhibition LOLMG (LOLMG (annual ryegrass); 10 g/ha): 0%
- Percent inhibition LOLMG (LOLMG (annual ryegrass); 30 g/ha): 30%
- Percent inhibition LOLMG (LOLMG (annual ryegrass); 100 g/ha): 60%
- Percent inhibition LOLMG (LOLMG (annual ryegrass); 300 g/ha): 85%
- Percent inhibition LOLMG (LOLMG (annual ryegrass); 900 g/ha): 75%
- PPI activity GR80, GALAP [2]: [empty]
- Percent inhibition GALAP ([2]; 10 g/ha): 0%
- Percent inhibition GALAP ([2]; 30 g/ha): 0%
- Percent inhibition GALAP ([2]; 100 g/ha): 50%
- Percent inhibition GALAP ([2]; 300 g/ha): 90%
- Percent inhibition GALAP ([2]; 900 g/ha): 100%
- Percent inhibition ZEAMX (corn (ZEAMX); 10 g/ha): 0%
- Percent inhibition ZEAMX (corn (ZEAMX); 30 g/ha): 0%
- Percent inhibition ZEAMX (corn (ZEAMX); 100 g/ha): 0%
- Percent inhibition ZEAMX (corn (ZEAMX); 300 g/ha): 20%
- Percent inhibition ZEAMX (corn (ZEAMX); 900 g/ha): 40%
- Percent inhibition HORVX (barley (HORVX); 10 g/ha): 0%
- Percent inhibition HORVX (barley (HORVX); 30 g/ha): 0%
- Percent inhibition HORVX (barley (HORVX); 100 g/ha): 0%
- Percent inhibition HORVX (barley (HORVX); 300 g/ha): 10%
- Percent inhibition HORVX (barley (HORVX); 900 g/ha): 30%
- Post-emergence activity GR80, SETVI (SETVI (green foxtail)): [empty]
- PPI activity GR80, STEME (STEME (common chickweed)): * (activity observed, at least at highest rate, but <80% inhibition)
- Percent inhibition ORYSA (rice (ORYSA); 10 g/ha): 0%
- Percent inhibition ORYSA (rice (ORYSA); 30 g/ha): 0%
- Percent inhibition ORYSA (rice (ORYSA); 100 g/ha): 0%
- Percent inhibition ORYSA (rice (ORYSA); 300 g/ha): 10%
- Percent inhibition ORYSA (rice (ORYSA); 900 g/ha): 40%
- Percent inhibition BRAPP ([3]; 10 g/ha): 0%
- Percent inhibition BRAPP ([3]; 30 g/ha): 0%
- Percent inhibition BRAPP ([3]; 100 g/ha): 0%
- Percent inhibition BRAPP ([3]; 300 g/ha): 30%
- Percent inhibition BRAPP ([3]; 900 g/ha): 60%
- PPI activity GR80, BRAPP [3]: 100 g/ha

SMILES: CCN(CC)C(=O)n1cnc(S(=O)(=O)C(F)(F)SCc2ccccc2)n1 [Example 10]
- Percent inhibition AGSST ([1]; 10 g/ha): 90%
- Percent inhibition AGSST ([1]; 30 g/ha): 70%
- Percent inhibition AGSST ([1]; 100 g/ha): 100%
- Percent inhibition AGSST ([1]; 300 g/ha): 100%
- Percent inhibition AGSST ([1]; 900 g/ha): 100%
- Percent inhibition POLCO (POLCO (wild buckwheat); 10 g/ha): 0%
- Percent inhibition POLCO (POLCO (wild buckwheat); 30 g/ha): 0%
- Percent inhibition POLCO (POLCO (wild buckwheat); 100 g/ha): 60%
- Percent inhibition POLCO (POLCO (wild buckwheat); 300 g/ha): 80%
- Percent inhibition POLCO (POLCO (wild buckwheat); 900 g/ha): 95%
- Percent inhibition LOLMG (LOLMG (annual ryegrass); 10 g/ha): 0%
- Percent inhibition LOLMG (LOLMG (annual ryegrass); 30 g/ha): 0%
- Percent inhibition LOLMG (LOLMG (annual ryegrass); 100 g/ha): 65%
- Percent inhibition LOLMG (LOLMG (annual ryegrass); 300 g/ha): 100%
- Percent inhibition LOLMG (LOLMG (annual ryegrass); 900 g/ha): 99%
- Percent inhibition GALAP ([2]; 10 g/ha): 0%
- Percent inhibition GALAP ([2]; 30 g/ha): 0%
- Percent inhibition GALAP ([2]; 100 g/ha): 80%
- Percent inhibition GALAP ([2]; 300 g/ha): 50%
- Percent inhibition GALAP ([2]; 900 g/ha): 100%
- Percent inhibition ZEAMX (corn (ZEAMX); 10 g/ha): 0%
- Percent inhibition ZEAMX (corn (ZEAMX); 30 g/ha): 0%
- Percent inhibition ZEAMX (corn (ZEAMX); 100 g/ha): 0%
- Percent inhibition ZEAMX (corn (ZEAMX); 300 g/ha): 10%
- Percent inhibition ZEAMX (corn (ZEAMX); 900 g/ha): 40%
- Percent inhibition HORVX (barley (HORVX); 10 g/ha): 0%
- Percent inhibition HORVX (barley (HORVX); 30 g/ha): 0%
- Percent inhibition HORVX (barley (HORVX); 100 g/ha): 0%
- Percent inhibition HORVX (barley (HORVX); 300 g/ha): 0%
- Percent inhibition HORVX (barley (HORVX); 900 g/ha): 20%
- Post-emergence activity GR80, SETVI (SETVI (green foxtail)): [empty]
- Percent inhibition STEME (STEME (common chickweed); 10 g/ha): 0%
- Percent inhibition STEME (STEME (common chickweed); 30 g/ha): 0%
- Percent inhibition STEME (STEME (common chickweed); 100 g/ha): 0%
- Percent inhibition STEME (STEME (common chickweed); 300 g/ha): 0%
- Percent inhibition STEME (STEME (common chickweed); 900 g/ha): 90%
- Percent inhibition ORYSA (rice (ORYSA); 10 g/ha): 0%
- Percent inhibition ORYSA (rice (ORYSA); 30 g/ha): 0%
- Percent inhibition ORYSA (rice (ORYSA); 100 g/ha): 0%
- Percent inhibition ORYSA (rice (ORYSA); 300 g/ha): 30%
- Percent inhibition ORYSA (rice (ORYSA); 900 g/ha): 0%
- Percent inhibition BRAPP ([3]; 10 g/ha): 0%
- Percent inhibition BRAPP ([3]; 30 g/ha): 20%
- Percent inhibition BRAPP ([3]; 100 g/ha): 70%
- Percent inhibition BRAPP ([3]; 300 g/ha): 100%
- Percent inhibition BRAPP ([3]; 900 g/ha): 100%

SMILES: CCN(CC)C(=O)n1cnc(S(=O)(=O)C(F)(F)SCCOC)n1 [Example 13]
- PPI activity GR80, AGSST [1]: 30 g/ha
- Percent inhibition AGSST ([1]; 10 g/ha): 60%
- Percent inhibition AGSST ([1]; 30 g/ha): 95%
- Percent inhibition AGSST ([1]; 100 g/ha): 100%
- Percent inhibition AGSST ([1]; 300 g/ha): 100%
- Percent inhibition AGSST ([1]; 900 g/ha): 100%
- PPI activity GR80, POLCO (POLCO (wild buckwheat)): * (activity observed, at least at highest rate, but <80% inhibition)
- Percent inhibition POLCO (POLCO (wild buckwheat); 10 g/ha): 0%
- Percent inhibition POLCO (POLCO (wild buckwheat); 30 g/ha): 50%
- Percent inhibition POLCO (POLCO (wild buckwheat); 100 g/ha): 40%
- Percent inhibition POLCO (POLCO (wild buckwheat); 300 g/ha): 80%
- Percent inhibition POLCO (POLCO (wild buckwheat); 900 g/ha): 90%
- PPI activity GR80, LOLMG (LOLMG (annual ryegrass)): * (activity observed, at least at highest rate, but <80% inhibition)
- Percent inhibition LOLMG (LOLMG (annual ryegrass); 10 g/ha): 20%
- Percent inhibition LOLMG (LOLMG (annual ryegrass); 30 g/ha): 60%
- Percent inhibition LOLMG (LOLMG (annual ryegrass); 100 g/ha): 70%
- Percent inhibition LOLMG (LOLMG (annual ryegrass); 300 g/ha): 100%
- Percent inhibition LOLMG (LOLMG (annual ryegrass); 900 g/ha): 100%
- PPI activity GR80, GALAP [2]: 300 g/ha
- Percent inhibition GALAP ([2]; 10 g/ha): 0%
- Percent inhibition GALAP ([2]; 30 g/ha): 30%
- Percent inhibition GALAP ([2]; 100 g/ha): 0%
- Percent inhibition GALAP ([2]; 300 g/ha): 40%
- Percent inhibition GALAP ([2]; 900 g/ha): 100%
- Percent inhibition ZEAMX (corn (ZEAMX); 10 g/ha): 0%
- Percent inhibition ZEAMX (corn (ZEAMX); 30 g/ha): 0%
- Percent inhibition ZEAMX (corn (ZEAMX); 100 g/ha): 5%
- Percent inhibition ZEAMX (corn (ZEAMX); 300 g/ha): 10%
- Percent inhibition ZEAMX (corn (ZEAMX); 900 g/ha): 50%
- Percent inhibition HORVX (barley (HORVX); 10 g/ha): 0%
- Percent inhibition HORVX (barley (HORVX); 30 g/ha): 0%
- Percent inhibition HORVX (barley (HORVX); 100 g/ha): 20%
- Percent inhibition HORVX (barley (HORVX); 300 g/ha): 10%
- Percent inhibition HORVX (barley (HORVX); 900 g/ha): 40%
- Post-emergence activity GR80, SETVI (SETVI (green foxtail)): [empty]
- PPI activity GR80, STEME (STEME (common chickweed)): * (activity observed, at least at highest rate, but <80% inhibition)
- Percent inhibition STEME (STEME (common chickweed); 10 g/ha): 0%
- Percent inhibition STEME (STEME (common chickweed); 30 g/ha): 0%
- Percent inhibition STEME (STEME (common chickweed); 100 g/ha): 20%
- Percent inhibition STEME (STEME (common chickweed); 300 g/ha): 100%
- Percent inhibition STEME (STEME (common chickweed); 900 g/ha): 99%
- Percent inhibition ORYSA (rice (ORYSA); 10 g/ha): 0%
- Percent inhibition ORYSA (rice (ORYSA); 30 g/ha): 30%
- Percent inhibition ORYSA (rice (ORYSA); 100 g/ha): 70%
- Percent inhibition ORYSA (rice (ORYSA); 300 g/ha): 60%
- Percent inhibition ORYSA (rice (ORYSA); 900 g/ha): 80%
- Percent inhibition BRAPP ([3]; 10 g/ha): 40%
- Percent inhibition BRAPP ([3]; 30 g/ha): 80%
- Percent inhibition BRAPP ([3]; 100 g/ha): 95%
- Percent inhibition BRAPP ([3]; 300 g/ha): 99%
- Percent inhibition BRAPP ([3]; 900 g/ha): 100%
- PPI activity GR80, BRAPP [3]: 100 g/ha

— patent US6461997B1, “Triazole sulfones having herbicidal activity” (Monsanto Technology LLC, priority 1999, dated 2002)
